Test results: patent US20210275480A1, “COMPOSITIONS AND METHODS FOR THE REDUCTION OR TREATMENT OF FIBROSIS” (AXCELLA HEALTH INC., priority 2018, published 2021)
Where “and” joins values, the source holds several entries; their conditions need not be identical. Identical values can stand only once.

Tested on: STAM mice (NASH)
Experiment: STAM model of NASH (Example 2): NAFLD activity score, Sirius red, α-SMA staining
Format: in vivo, mouse
Parameters: key to NAFLD Activity: Ballooning Score, mean / NAFLD Activity: Steatosis Score, mean / NAFLD Activity: Inflammation Score, mean / NAFLD Activity Score: raw data / NAFLD Activity: Steatosis Score: raw data / NAFLD Activity: Ballooning Score: raw data: NAS = steatosis (0-3) + inflammation (0-2) + ballooning (0-2)
Description: Amino Acid Composition A-1 and Obeticholic acid (6α-ethyl-chenodeoxycholic acid; “OCA”) were tested for their ability to treat NASH in the STAM™ model (Stelic Institute & Co., Tokyo, Japan; Saito K. et al., 2015 Sci Rep 5: 12466). Two additional groups of normal C57BL/6 mice fed standard chow and vehicle treated STAM™ mice were included as controls. All animals receiving treatment or vehicle were treated starting at 6 weeks until 9 weeks of age. Compounds were administered via oral gavage, with a dose volume of 10 ml/kg. Amino Acid Composition A-1 was administered twice daily at a dose of 1500 mg/kg, and OCA was administered once daily at a dose of 30 mg/kg.
STAM™ is a model for non-alcoholic steatohepatitis (NASH) and hepatocellular carcinoma (HCC), developed by SMC Laboratories, Inc. and created by the combination of chemical and dietary interventions using C57BL/6 mice (Saito K. et al., 2015 Sci Rep 5: 12466). Mice are treated with a low dose of streptozotocin at birth and fed a high fat diet starting at 4 weeks. Evidence of fatty liver is present by 5 weeks, followed by NASH by 7 weeks and fibrosis by 9 weeks.
NASH was induced in 53 male mice by a single subcutaneous injection of 200 μg streptozotocin (STZ, Sigma-Aldrich, USA) solution 2 days after birth and feeding with high fat diet (HFD, 57 kcal % fat, Cat #HFD32, CLEA Japan, Japan) after 4 weeks of age.
Amino Acid Composition A-1, OCA and Vehicle (described below) were administered by oral route in a volume of 10 mL/kg. Amino Acid Composition A-1 was solubilized in deionized water to 150 mg/ml (10×). OCA (Advanced ChemBlocks Inc.) was resuspended in 0.5% methylcellulose in water to 3 mg/ml (10×). Amino Acid Composition A-1 was administered at a dose of 1500 mg/kg twice daily (9 am and 7 pm). OCA was administered at a dose of 30 mg/kg once daily (9 am).
Liver samples from mice in Group 2 (Vehicle), 3 (Amino Acid Composition A-1) and 4 (OCA) were used for the following assays. For HE staining, sections were cut from paraffin blocks of liver tissue prefixed in Bouin's solution and stained with Lillie-Mayer's Hematoxylin (Muto Pure Chemicals Co., Ltd., Japan) and eosin solution (Wako Pure Chemical Industries). NAFLD Activity score (NAS) was calculated according to the criteria of Kleiner (Kleiner D. E. et al., Hepatology, 2005; 41:1313).
Group 3: Amino Acid Composition A-1: Ten NASH mice were orally administered water for irrigation supplemented with Amino Acid Composition A-1 at a dose of 1500 mg/kg twice daily (9 am and 7 pm) from 6 to 9 weeks of age.
Group 4: OCA: Ten NASH mice were orally administered 0.5% methylcellulose supplemented with OCA at a dose of 30 mg/kg once daily (9 am) from 6 to 9 weeks of age.
The non-alcoholic fatty liver disease (NAFLD) activity score was assessed via histological analysis and grading of H&E stained liver sections from each animal. This score is the sum of three individual scores that grade the degree of steatosis (0-3), inflammation (0-2), and hepatocyte ballooning (0-2). All tissues were graded using the scoring criteria of Kleiner et al. (Kleiner et al. Hepatology. 2005; 41(6): 1313-21). Data are mean±standard deviation (stdev). […] Both Amino Acid Composition A-1 and OCA were statistically different from vehicle for NAFLD Activity Score when compared using Dunnett's multiple comparisons test (Amino Acid Composition A-1 p=0.0001, OCA p=0.0001).
Fibrosis was assessed by analysis of Sirius red positively stained cell area from stained liver sections from each animal. Images were quantified using the percent of positively stained area was used as a measure of fibrosis. Data are mean±standard deviation (stdev). […] Amino Acid Composition A-1 and OCA were statistically different from vehicle when compared using Dunnett's multiple comparisons test (Amino Acid Composition A-1 p=0.00494, OCA p<0.016).
Liver sections of all mice were stained for the marker α-smooth muscle actin (aSMA) to identify activated hepatic stellate cells. […]

[1] = STAM mice liver sections, A-1 1500 mg/kg twice daily, OCA 30 mg/kg once daily
[2] = STAM mice treated 6 to 9 weeks of age, A-1 1500 mg/kg twice daily, OCA 30 mg/kg once daily

## CC[C@H]1[C@@H](O)[C@@H]2[C@H](CC[C@]3(C)[C@@H]([C@H](C)CCC(=O)O)CC[C@@H]23)[C@@]2(C)CC[C@@H](O)C[C@@H]12 [OCA, 6α-ethyl-chenodeoxycholic acid]
[1]
  Activated hepatic stellate cells (mean positively stained area, α-smooth muscle actin): 1.562+/−0.31% and 1.562%
  Fibrosis (mean positively stained area, Sirius red): 0.776+/−0.25% and 0.776%
[2]
  NAFLD Activity: Ballooning Score, mean: 0.3+/−0.48 and 0.3
  NAFLD Activity: Inflammation Score, mean: 1.8
  NAFLD Activity: Steatosis Score, mean: 0.8
STAM mice treated 6 to 9 weeks of age, A-1 1500 mg/kg twice daily, OCA 30 mg/kg once daily, oral
  NAFLD Activity Score (NAS), mean: 2.9+/−0.74 and 2.9
Individual STAM mice
  Activated hepatic stellate cells (positively stained area, α-smooth muscle actin): raw data: 1.51% and 1.49% (2×) and 1.17% and 1.5% and 1.13% and 2.03% and 1.87% and 1.97% and 1.46%
  Fibrosis (positively stained area, Sirius red): raw data: 1.1% and 1.19% and 0.89% and 0.91% and 0.66% and 0.72% and 0.68% and 0.69% and 0.36% and 0.56%
  NAFLD Activity Score: raw data: 2 (3×) and 4 (2×) and 3 (5×)
  NAFLD Activity: Ballooning Score: raw data: 0 (7×) and 1 (3×)
  NAFLD Activity: Inflammation Score: raw data: 1 (4×) and 2 (4×) and 3 (2×)
  NAFLD Activity: Steatosis Score: raw data: 1 (8×) and 0 (2×)
